# What was measured:
# Steryl-sulfatase [1] = biological target: T1, Steryl-sulfatase (Homo sapiens, UniProt P08842); type: microsomes, Placenta, Microsome
# T1 sequence (P08842 whole entry): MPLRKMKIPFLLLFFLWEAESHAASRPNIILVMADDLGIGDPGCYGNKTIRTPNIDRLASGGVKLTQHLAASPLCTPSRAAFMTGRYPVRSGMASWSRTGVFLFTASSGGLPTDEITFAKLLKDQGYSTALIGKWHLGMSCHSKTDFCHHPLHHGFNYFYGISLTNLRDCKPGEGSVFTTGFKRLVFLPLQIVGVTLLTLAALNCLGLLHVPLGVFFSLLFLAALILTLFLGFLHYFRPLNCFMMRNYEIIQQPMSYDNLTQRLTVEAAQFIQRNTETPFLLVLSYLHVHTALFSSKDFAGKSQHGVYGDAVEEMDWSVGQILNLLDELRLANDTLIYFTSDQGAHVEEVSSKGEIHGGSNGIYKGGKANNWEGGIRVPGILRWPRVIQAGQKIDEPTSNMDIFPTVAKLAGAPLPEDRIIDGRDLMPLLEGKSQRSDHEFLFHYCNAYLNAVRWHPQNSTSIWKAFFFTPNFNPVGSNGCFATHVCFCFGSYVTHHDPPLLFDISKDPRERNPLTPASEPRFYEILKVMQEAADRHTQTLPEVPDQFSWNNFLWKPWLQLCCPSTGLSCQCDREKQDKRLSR
# Steryl-sulfatase [2] = biological target: T1, Steryl-sulfatase; type: cell-based, MCF7
# DU-145 = assay: cells; type: functional; conditions: Homo sapiens
# MDA-MB-231 [3] = assay: cells; type: functional; conditions: Homo sapiens
# Rattus norvegicus [4] = species: Rattus norvegicus; assay: animal or person; type: functional; conditions: Wistar, po, 3 h
# Steryl-sulfatase [5] = biological target: T1, Steryl-sulfatase; type: cell-based, JEG-3
# Rattus norvegicus [6] = species: Rattus norvegicus; assay: animal or person; type: functional; conditions: Wistar, po, 3 h; remark: listed apart in the source
# Estrogen receptor = biological target: T2, Estrogen receptor (Homo sapiens, UniProt P03372)
# T2 sequence (P03372 whole entry): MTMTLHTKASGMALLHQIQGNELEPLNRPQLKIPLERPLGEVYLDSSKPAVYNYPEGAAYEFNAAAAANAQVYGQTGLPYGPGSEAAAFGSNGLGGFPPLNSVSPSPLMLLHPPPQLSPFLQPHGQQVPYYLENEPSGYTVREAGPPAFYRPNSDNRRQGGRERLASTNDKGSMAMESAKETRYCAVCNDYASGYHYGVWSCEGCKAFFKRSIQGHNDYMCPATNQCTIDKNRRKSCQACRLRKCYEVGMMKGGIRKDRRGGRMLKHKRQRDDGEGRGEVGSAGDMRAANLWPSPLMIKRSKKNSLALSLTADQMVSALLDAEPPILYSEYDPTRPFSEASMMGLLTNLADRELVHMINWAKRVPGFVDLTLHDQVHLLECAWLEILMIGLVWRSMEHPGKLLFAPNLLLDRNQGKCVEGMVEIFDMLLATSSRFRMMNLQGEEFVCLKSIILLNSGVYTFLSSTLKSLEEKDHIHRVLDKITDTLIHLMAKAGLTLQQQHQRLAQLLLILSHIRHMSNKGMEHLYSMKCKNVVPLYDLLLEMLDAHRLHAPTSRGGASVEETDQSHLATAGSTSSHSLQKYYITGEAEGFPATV
# MCF7 [7] = assay: cells; type: functional; conditions: Homo sapiens
# MCF7 [8] = assay: cells; type: functional; conditions: Homo sapiens; remark: listed apart in the source
# cells [9] = type: functional, cell-based; conditions: Homo sapiens, A2780 ADR
# A2780cisR = assay: cells; type: functional, cell-based; conditions: Homo sapiens
# Steryl-sulfatase [10] = biological target: T1, Steryl-sulfatase; parameters: species or system Placenta, Microsome
# LNCaP = assay: cells; type: functional, cell-based; conditions: Homo sapiens
# cells [11] = type: functional, cell-based; conditions: Homo sapiens, PC-3
# MCF7 [12] = assay: animal or person; type: functional, Homo sapiens; conditions: Mus musculus, MCF7, po
# MDA-MB-231 [13] = assay: cells; type: functional, cell-based; conditions: Homo sapiens
# MCF7 [14] = assay: cells; type: functional, cell-based; conditions: Homo sapiens
# Homo sapiens [15] = species: Homo sapiens; type: functional
# Homo sapiens [16] = species: Homo sapiens; type: functional; remark: listed apart in the source
smiles,measurement,setting,value
C[C@]12CC[C@@H]3c4ccc(OS(N)(=O)=O)cc4CC[C@H]3[C@@H]1CC(=O)N(Cc1ccccc1)C2=O,IC50,Steryl-sulfatase [1],3 nM
C=CCN1C(=O)C[C@H]2[C@@H]3CCc4cc(OS(N)(=O)=O)ccc4[C@H]3CC[C@]2(C)C1=O,IC50,Steryl-sulfatase [1],75 nM
CC/C(=C(/CC)c1ccc(OS(N)(=O)=O)cc1)c1ccc(OS(N)(=O)=O)cc1,IC50,Steryl-sulfatase [2],10 nM
CCc1cc2c(cc1OS(N)(=O)=O)CCN(Cc1cc(OC)c(OC)c(OC)c1)C2,GI50,DU-145,41 nM
same,GI50,MDA-MB-231 [3],52 nM
CCC1Cc2cc(OS(N)(=O)=O)c(OC)cc2CN1Cc1cccc(OC)c1 (centres undefined),GI50,DU-145,286 nM
same,GI50,MDA-MB-231 [3],281 nM
COc1ccc(F)c(CN2Cc3cc(OC)c(OS(N)(=O)=O)cc3CC2C)c1 (centres undefined),GI50,DU-145,299 nM
same,GI50,MDA-MB-231 [3],269 nM
COc1ccc(OC)c(CN2Cc3cc(OC)c(OS(N)(=O)=O)cc3CC2C)c1 (centres undefined),GI50,DU-145,189 nM
same,GI50,MDA-MB-231 [3],160 nM
COc1cc2c(cc1OS(N)(=O)=O)CCN(Cc1cc(OC)c(OC)c(OC)c1)C2C (centres undefined),GI50,DU-145,360 nM
same,GI50,MDA-MB-231 [3],300 nM
COc1cc2c(cc1OS(N)(=O)=O)CCN(Cc1cc(Cl)c(OC)c(OC)c1)C2,GI50,DU-145,40 nM
same,GI50,MDA-MB-231 [3],40 nM
COc1cc2c(cc1OS(N)(=O)=O)CCN(Cc1cc(Br)c(OC)c(OC)c1)C2,GI50,DU-145,30 nM
same,GI50,MDA-MB-231 [3],30 nM
CCc1cc2c(cc1OS(N)(=O)=O)CCN(Cc1cc(Br)c(OC)c(OC)c1)C2,GI50,DU-145,20 nM
same,GI50,MDA-MB-231 [3],30 nM
CCOc1c(OC)cc(CN2CCc3cc(OS(N)(=O)=O)c(OC)cc3C2)cc1OC,GI50,DU-145,100 nM
same,GI50,MDA-MB-231 [3],70 nM
N#Cc1ccc(N(CCSc2ccc(OS(N)(=O)=O)c(Cl)c2)n2cnnc2)cc1,inhibition in vivo at 10 mg/kg,Rattus norvegicus [4],92%
same,IC50,Steryl-sulfatase [5],1200 nM
same,inhibition in vivo at 10 mg/kg,Rattus norvegicus [6],98%
N#Cc1ccc(N(Cc2ccc3cc(OS(N)(=O)=O)ccc3c2)n2cnnc2)cc1,IC50,Steryl-sulfatase [5],367 nM
N#Cc1ccc(N(Cc2ccc3c(Cl)c(OS(N)(=O)=O)ccc3c2)n2cnnc2)cc1,inhibition in vivo at 10 mg/kg,Rattus norvegicus [4],93%
same,IC50,Steryl-sulfatase [5],26 nM
same,inhibition in vivo at 10 mg/kg,Rattus norvegicus [6],93%
N#Cc1ccc(N(Cc2ccc3c(Br)c(OS(N)(=O)=O)ccc3c2)n2cnnc2)cc1,IC50,Steryl-sulfatase [5],205 nM
Cn1nnc2ccc(C(c3ccc(OS(N)(=O)=O)cc3)n3cncn3)cc21 (centres undefined),IC50,Steryl-sulfatase [5],> 10000 nM
CCN(Cc1ccc(C(=O)N2CCc3ccc(O)cc3C2)cc1)Cc1ccccn1,IC50,Estrogen receptor,24600 nM
COc1cc2c(cc1OS(N)(=O)=O)CC[C@@H]1[C@@H]2CC[C@]2(C)C(=O)CC[C@@H]12,GI50,MCF7 [7],300 nM
same,inhibition at 1 µM,MCF7 [8],52%
same,IC50,cells [9],100 nM
same,IC50,A2780cisR,100 nM
same,IC50,Steryl-sulfatase [10],30 nM
same,IC50,LNCaP,100 nM
same,IC50,cells [11],100 nM
COc1cc2c(cc1OS(N)(=O)=O)CC[C@@H]1[C@@H]2CC[C@]2(C)[C@@H](CC#N)CC[C@@H]12,inhibition in vivo at 20 mg/kg,MCF7 [12],22%
same,IC50,MDA-MB-231 [13],80 nM
same,IC50,MCF7 [14],70 nM
N#Cc1ccc(N(Cc2ccc(OS(N)(=O)=O)cc2)n2cnnc2)cc1,inhibition in vivo at 10 mg/kg,Rattus norvegicus [6],39%
C[C@]12CC[C@@H]3c4ccc(OS(N)(=O)=O)cc4CC[C@H]3[C@@H]1CC[C@@H]2O [E2MATE],inhibition (INH),Homo sapiens [15],96%
same,inhibition (INH),Homo sapiens [16],91%

# Reference: ChEMBL document CHEMBL3621110, “Discovery and Development of the Aryl O-Sulfamate Pharmacophore for Oncology and Women's Health” (J Med Chem, 2015)
